Consider 54 compounds from patent US8642609B2, “Modulators of ATP-binding cassette transporters” (Vertex Pharmaceuticals Incorporated, priority 2003, dated 2014).

The EC50 is the midpoint of the concentration-response curve. For orientation: Emax means the size of the effect at its maximum, as opposed to the concentration needed.

A value given as a limit tells only on which side of the number the result lay.

This experiment deals with T1, ΔF508-CFTR (Homo sapiens, UniProt P13569, DEL508-508).
T1 construct: expressed in transfected cells
T1 sequence (P13569 with tags, fused parts or gaps DEL508-508): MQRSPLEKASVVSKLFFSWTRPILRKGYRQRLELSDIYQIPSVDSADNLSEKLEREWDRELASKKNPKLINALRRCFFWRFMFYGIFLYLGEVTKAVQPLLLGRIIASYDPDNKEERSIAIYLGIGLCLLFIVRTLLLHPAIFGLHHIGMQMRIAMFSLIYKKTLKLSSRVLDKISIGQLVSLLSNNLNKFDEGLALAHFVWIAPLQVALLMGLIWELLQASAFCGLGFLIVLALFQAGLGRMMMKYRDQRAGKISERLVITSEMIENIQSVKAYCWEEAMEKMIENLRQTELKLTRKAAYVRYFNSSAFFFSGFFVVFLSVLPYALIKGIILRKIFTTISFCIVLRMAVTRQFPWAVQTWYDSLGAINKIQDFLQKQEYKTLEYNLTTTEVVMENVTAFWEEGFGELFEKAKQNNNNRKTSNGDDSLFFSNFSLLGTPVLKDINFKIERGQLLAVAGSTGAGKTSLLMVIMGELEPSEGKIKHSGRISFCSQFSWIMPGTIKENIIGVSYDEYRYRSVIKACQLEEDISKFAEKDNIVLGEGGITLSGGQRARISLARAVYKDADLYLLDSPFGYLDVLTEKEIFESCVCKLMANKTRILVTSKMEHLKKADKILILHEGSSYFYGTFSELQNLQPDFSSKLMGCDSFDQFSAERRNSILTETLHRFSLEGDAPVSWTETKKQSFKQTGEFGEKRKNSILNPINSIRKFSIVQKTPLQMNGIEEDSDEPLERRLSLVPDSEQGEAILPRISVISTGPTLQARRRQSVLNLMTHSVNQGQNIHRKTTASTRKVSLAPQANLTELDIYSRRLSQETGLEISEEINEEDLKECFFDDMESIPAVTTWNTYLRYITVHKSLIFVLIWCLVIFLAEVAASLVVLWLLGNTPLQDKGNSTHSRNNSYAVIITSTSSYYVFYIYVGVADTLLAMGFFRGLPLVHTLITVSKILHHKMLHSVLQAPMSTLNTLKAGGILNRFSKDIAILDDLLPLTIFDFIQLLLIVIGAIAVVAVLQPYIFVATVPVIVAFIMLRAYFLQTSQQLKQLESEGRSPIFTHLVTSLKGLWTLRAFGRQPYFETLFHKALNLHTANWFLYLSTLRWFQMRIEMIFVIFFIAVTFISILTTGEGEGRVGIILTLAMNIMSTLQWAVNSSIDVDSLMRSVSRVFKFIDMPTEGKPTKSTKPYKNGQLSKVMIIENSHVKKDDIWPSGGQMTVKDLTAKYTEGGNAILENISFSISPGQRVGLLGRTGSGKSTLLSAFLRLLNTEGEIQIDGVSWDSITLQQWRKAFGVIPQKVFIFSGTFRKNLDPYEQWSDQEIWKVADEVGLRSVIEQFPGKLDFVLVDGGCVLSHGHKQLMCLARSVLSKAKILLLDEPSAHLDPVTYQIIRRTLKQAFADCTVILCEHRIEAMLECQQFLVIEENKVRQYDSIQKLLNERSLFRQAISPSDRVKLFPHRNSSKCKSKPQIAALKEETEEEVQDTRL
Briefly: Membrane potential optical assay (FRET/VIPR), identification of correction compounds. In kind it is cell-based. As to conditions: for Emax: relative efficacy. In outline:
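Corrector screen: FRET voltage-sensor dyes (CC2-DMPE donor, DiSBAC2(3)) report Cl^− efflux-driven depolarization after 10 μM forskolin and 20 μM genistein in Cl^−-free medium. Beforehand, ΔF508-CFTR NIH3T3 fibroblasts received compound for 16 hrs at 37° C; temperature-corrected cells (27° C) served as positive control.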

Turning to `COc1cc2nc(C(C)N3CCN(S(=O)(=O)c4ccc(Br)cc4)CC3)n(C)c(=O)c2cc1OC` (stereo not drawn) [compound 284], the EC50 fell in the range of 25 to 60 µM and the Emax lay in the range of 25 to 100%.
Consider `CC(c1nc2ccccc2c(=O)n1C)N(C)C1CCN(S(=O)(=O)c2ccc(Br)cc2)CC1` (stereo not drawn) [compound 306], for which the EC50 was in the range of 25 to 60 µM and the Emax was in the range of 25 to 100%.
The matching figures for `CCCn1c(C(C)N2CCN(S(=O)(=O)c3c(C)cc(C)cc3C)CC2)nc2ccccc2c1=O` (stereo not drawn) [compound 21]: 25 to 60 µM and 25 to 100%.
The matching figures for `COc1ccc2nc(C(C)N3CCN(S(=O)(=O)c4ccc(Cl)cc4)CC3)n(C)c(=O)c2c1` (stereo not drawn) [compound 136]: below 10 µM and above 100%.
Consider `Cc1ccc(S(=O)(=O)N2CCN(Cc3nc4ccc(Cl)cc4c(=O)n3C)CC2)cc1` [compound 66], for which the EC50 is 25 to 60 µM and the Emax was below 25%.
The matching figures for `CC(c1nc2ccccc2c(=O)n1C)N1CCN(S(=O)(=O)c2ccc(Oc3ccccc3)nc2)CC1` (stereo not drawn) [compound 267]: 25 to 60 µM and below 25%.
The matching figures for `CCOC(=O)C1CCN(c2nc(C(C)N3CCN(S(=O)(=O)c4ccc(OC)cc4)CC3)nc3ccccc23)CC1` (stereo not drawn) [compound 322]: below 10 µM and above 100%.
The matching figures for `CCCn1c(C(C)N2CCN(S(=O)(=O)c3ccc4ccccc4c3)CC2)nc2ccccc2c1=O` (stereo not drawn) [compound 47]: below 10 µM and 25 to 100%.
In the case of `COc1ccc(S(=O)(=O)N2CCN(C(C)c3nc(N4CCCc5ccccc54)c4ccccc4n3)CC2)cc1` (stereo not drawn) [compound 388], the EC50 is below 10 µM and the maximal effect (Emax) is above 100%.
The corresponding values for `COc1ccc(C(=O)N2CCN(C(C)c3nc4ccc(Cl)cc4c(=O)n3C)CC2)cc1OC` (stereo not drawn) [compound 77] are 25 to 60 µM and below 25%.
The matching figures for `CCCn1c(C(C)N2CCN(C(=O)Nc3cccc(C#N)c3)CC2)nc2ccccc2c1=O` (stereo not drawn) [compound 23]: 25 to 60 µM and 25 to 100%.
The corresponding values for `Cc1noc(C)c1S(=O)(=O)N1CCN(C(C)c2nc3ccccc3c(=O)n2C)CC1` (stereo not drawn) [compound 266] are 25 to 60 µM and below 25%.
On to `COc1ccc(S(=O)(=O)NCCN(C(C)c2nc3ccccc3c(=O)n2C)S(=O)(=O)c2ccc(OC)cc2)cc1` (stereo not drawn) [compound 197], for which the EC50 was in the range of 25 to 60 µM and the Emax was 25 to 100%.
The matching figures for `CC(c1nc2ccc(Cl)cc2c(=O)n1C)N1CCN(C(=O)c2cccc(Cl)c2)CC1` (stereo not drawn) [compound 83]: 10 to 25 µM and below 25%.
Turning to `CCCn1c(C(C)N2CCN(C(=O)Nc3ccc(F)cc3F)CC2)nc2ccccc2c1=O` (stereo not drawn) [compound 24], the EC50 lay within 25 to 60 µM and the Emax was in the range of 25 to 100%.
The matching figures for `Cc1ccccc1S(=O)(=O)N1CCN(C(C)c2nc3ccccc3c(=O)n2C)CC1` (stereo not drawn) [compound 69]: 25 to 60 µM and 25 to 100%.
The corresponding values for `CC(c1nc2ccccc2c(=O)n1C)N1CCC(NS(=O)(=O)c2ccc(Cl)cc2)C1` (stereo not drawn) [compound 162] are 25 to 60 µM and below 25%.
The matching figures for `CC(c1nc2ccc(C#N)cc2c(=O)n1C)N1CCN(S(=O)(=O)c2ccccc2)CC1` (stereo not drawn) [compound 123]: 10 to 25 µM and below 25%.
`CSc1nccc(-c2ccc(S(=O)(=O)N3CCN(C(C)c4nc5ccccc5c(=O)n4C)CC3)s2)n1` (stereo not drawn) [compound 277]: the EC50 was 25 to 60 µM and the Emax is below 25%.
The corresponding values for `COc1ccc(S(=O)(=O)N2CCN(C(C)c3nc(N4CCCC(CO)C4)c4ccccc4n3)CC2)cc1` (stereo not drawn) [compound 344] are 10 to 25 µM and 25 to 100%.
The corresponding values for `COc1ccc(S(=O)(=O)N2CCN(C(C)c3nc4ccc(S(C)(=O)=O)cc4c(=O)n3C)CC2)cc1` (stereo not drawn) [compound 140] are 10 to 25 µM and 25 to 100%.
With `CC(c1nc2ccccc2c(=O)n1C)N1CCN(S(=O)(=O)N(C)C)CC1` (stereo not drawn) [compound 292], the EC50 was in the range of 25 to 60 µM and the maximum response (Emax) is below 25%.
The corresponding values for `CC(c1nc2ccccc2c(=O)n1C)N1CCN(C(=O)c2cccc(Cl)c2)CC1` (stereo not drawn) [compound 75] are 25 to 60 µM and below 25%.
The matching figures for `CCCC(c1nc2ccccc2c(=O)n1C)N1CCN(S(=O)(=O)c2ccc(OC)cc2)CC1` (stereo not drawn) [compound 340]: below 10 µM and above 100%.
For the compound `CC(c1nc2ccccc2c(=O)n1C)N1CCCN(S(=O)(=O)c2ccc(Cl)cc2)CC1` (stereo not drawn) [compound 171], the 50% effective concentration (EC50) was in the range of 10 to 25 µM and the Emax was in the range of 25 to 100%.
On to `CC(c1nc2ccccc2c(=O)n1C)N1CCN(S(=O)(=O)c2ccc(-c3cc(C(F)(F)F)n(C)n3)s2)CC1` (stereo not drawn) [compound 275], for which the EC50 lay in the range of 25 to 60 µM and the Emax was below 25%.
The matching figures for `COc1ccc(S(=O)(=O)N2CCN(C(C)c3nc(OC4CCC4)c4ccccc4n3)CC2)cc1` (stereo not drawn) [compound 398]: below 10 µM and above 100%.
The matching figures for `CC(c1nc2cc(Cl)ccc2c(=O)n1C)N1CCN(S(C)(=O)=O)CC1` (stereo not drawn) [compound 108]: 10 to 25 µM and below 25%.
The matching figures for `COc1ccc(S(=O)(=O)NC2CCN(C(C)c3nc4ccccc4c(=O)n3C)C2)cc1` (stereo not drawn) [compound 161]: 25 to 60 µM and below 25%.
As for `Cn1c(CN2CCN(S(=O)(=O)c3ccc(Cl)cc3)CC2)nc2ccc(Cl)cc2c1=O` [compound 67], the EC50 was 10 to 25 µM and the Emax is 25 to 100%.
The matching figures for `CCOC(=O)c1cnc(C(C)N2CCN(S(=O)(=O)c3ccc(OC)cc3)CC2)[nH]c1=O` (stereo not drawn) [compound 349]: 25 to 60 µM and 25 to 100%.
Regarding `CC(c1nc2ccc(Cl)cc2c(=O)n1C)N1CCN(S(=O)(=O)c2ccccc2)CC1` (stereo not drawn) [compound 71], the EC50 lay within 10 to 25 µM and the maximal response (Emax) lay in the range of 25 to 100%.
The corresponding values for `CC(c1nc2cccc(Cl)c2c(=O)n1C)N1CCN(S(=O)(=O)c2ccc(Cl)cc2)CC1` (stereo not drawn) [compound 104] are 10 to 25 µM and below 25%.
The corresponding values for `CC(=O)Nc1ccc(S(=O)(=O)N2CCN(C(C)c3nc4cc(Cl)ccc4c(=O)n3C)CC2)cc1` (stereo not drawn) [compound 111] are 10 to 25 µM and 25 to 100%.
The corresponding values for `CCc1nc2ccc(Cl)cc2c(=O)n1C` [compound 88] are 25 to 60 µM and below 25%.
With `COc1ccc(S(=O)(=O)N2CCN(C(C)c3nc(NC4CCCCC4)c4ccccc4n3)CC2)cc1` (stereo not drawn) [compound 304], the EC50 was below 10 µM and the Emax was 25 to 100%.
The matching figures for `CC(c1nc2cccc(Cl)c2c(=O)n1C)N1CCN(S(=O)(=O)c2ccccc2)CC1` (stereo not drawn) [compound 103]: 10 to 25 µM and below 25%.
In the case of `COc1ccc(S(=O)(=O)N(C)CCNC(C)c2nc3ccccc3c(=O)n2C)cc1` (stereo not drawn) [compound 211], the EC50 is 25 to 60 µM and the maximal effect (Emax) was below 25%.
Consider `COc1ccc(S(=O)(=O)N2CCN(C(C)c3nc4cc(Cl)ccc4c(=O)n3C)CC2)cc1` (stereo not drawn) [compound 93], for which the EC50 is below 10 µM and the Emax was in the range of 25 to 100%.
The corresponding values for `CC(c1nc2ccccc2c(=O)n1C)N1CCN(S(=O)(=O)c2ccc(S(=O)(=O)c3ccccc3)s2)CC1` (stereo not drawn) [compound 265] are 25 to 60 µM and below 25%.
The corresponding values for `CCOC(=O)c1cnc(C(C)N2CCN(S(=O)(=O)c3ccc(OC)cc3)CC2)nc1N1CCCCC1` (stereo not drawn) [compound 353] are below 10 µM and 25 to 100%.
The corresponding values for `CC(c1nc2ccccc2c(=O)n1C)N1CCN(S(=O)(=O)c2cccc3nonc23)CC1` (stereo not drawn) [compound 264] are 25 to 60 µM and below 25%.
As to `COc1ccc(S(=O)(=O)N2CC3CC2CN3C(C)c2nc3ccccc3c(=O)n2C)cc1` (stereo not drawn) [compound 175], the 50% effective concentration (EC50) was in the range of 25 to 60 µM and the Emax is below 25%.
The corresponding values for `CCCC(c1nc(N2CCCCC2)c2ccccc2n1)N1CCN(S(=O)(=O)c2ccc(OC)cc2)CC1` (stereo not drawn) [compound 339] are below 10 µM and above 100%.
The matching figures for `CC(=O)NCCn1c(C(C)N2CCN(S(=O)(=O)c3ccc(Br)cc3)CC2)nc2ccccc2c1=O` (stereo not drawn) [compound 287]: 25 to 60 µM and 25 to 100%.
The matching figures for `CC(c1nc2ccccc2c(=O)n1C)N1CCN(S(=O)(=O)c2ccc(S(C)(=O)=O)cc2)CC1` (stereo not drawn) [compound 262]: 25 to 60 µM and below 25%.
Turning to `CCn1c(C(C)N2CCN(S(=O)(=O)c3ccc(C)cc3)CC2)nc2ccc(Cl)cc2c1=O` (stereo not drawn) [compound 36], the EC50 lay in the range of 25 to 60 µM and the Emax fell in the range of 25 to 100%.
On to `CC(c1nc2cccc(Cl)c2c(=O)n1C)N1CCN(S(=O)(=O)c2ccc(Br)cc2)CC1` (stereo not drawn) [compound 105], for which the EC50 lay in the range of 10 to 25 µM and the Emax lay within 25 to 100%.
The corresponding values for `CCCn1c(C(C)N2CCN(S(=O)(=O)c3ccc(C)cc3)CC2)nc2ccccc2c1=O` (stereo not drawn) [compound 29] are 10 to 25 µM and above 100%.
The corresponding values for `CC(NCCCNS(=O)(=O)c1ccc(Br)cc1)c1nc2ccccc2c(=O)n1C` (stereo not drawn) [compound 174] are 25 to 60 µM and 25 to 100%.
The matching figures for `COc1ccc(S(=O)(=O)N2CCN(Cc3nc4ccc(Cl)cc4c(=O)n3C)CC2)cc1` [compound 137]: 10 to 25 µM and 25 to 100%.
Turning to `COc1ccc(S(=O)(=O)N2CCN(C(C)c3nc(C(C)C)c4ccccc4n3)CC2)cc1` (stereo not drawn) [compound 310], the EC50 is below 10 µM and the Emax was in the range of 25 to 100%.
The corresponding values for `CC(c1nc2ccc(Cl)cc2c(=O)n1C)N1CCN(S(=O)(=O)Cc2ccccc2)CC1` (stereo not drawn) [compound 86] are 10 to 25 µM and below 25%.
The corresponding values for `CC(NCCN(C)S(=O)(=O)c1ccc(Cl)cc1)c1nc2ccccc2c(=O)n1C` (stereo not drawn) [compound 212] are 25 to 60 µM and below 25%.
